# Assay results taken from patent US9029337B2, “Modulation of factor 7 expression” (Isis Pharmaceuticals, Inc., priority 2007, dated 2015).
# Strand notation (5' to 3'): a small letter for the sugar, then the base; units joined by * are phosphorothioate-linked, units joined directly phosphodiester-linked; [ ] holds rarer units or linkages, { } end groups; capitals alone tell only the bases. e = 2'-O-(2-methoxyethyl) (MOE); [5mC] = 5-methylcytosine; d = 2'-deoxy (DNA)
# Assays:
# murine Factor 7 mRNA = assay: Antisense inhibition of murine Factor 7 mRNA in liver of BALB/c mice, dose response; assay type: in vivo, mouse
# Protocol: (§1) BALB/c mice were treated with ISIS 403102 ([…], target site 11336, incorporated herein as SEQ ID NO: 161). BALB/c mice were injected subcutaneously with 5 mg/kg, 10 mg/kg, 25 mg/kg, or 50 mg/kg of ISIS 403102 twice a week for 3 weeks. A control group of mice was injected subcutaneously with PBS twice a week for 3 weeks. After the treatment period, whole liver was collected for RNA and protein analysis, and plasma was collected for clotting analysis (PT/aPTT).
# RNA was extracted from liver tissue for real-time RT-PCR analysis of Factor 7. […] Results are presented as percent inhibition of Factor 7, relative to the control.
# platelet factor-4 (PF-4) [1] = assay: Thrombus formation by real-time RT-PCR quantification of PF-4 in the FeCl3 induced venous thrombosis model; assay type: in vivo, mouse; conditions: Example 16, BALB/c mice, vena cava
# murine Factor 7 protein = assay: Plasma Factor 7 protein, Factor 7 chromogenic assay, BALB/c mice; assay type: in vivo, mouse
# Protocol: as §1
# Plasma Factor 7 protein was measured using a Factor 7 chromogenic assay (Hyphen BioMed). […] Results are presented as percent inhibition of Factor 7, relative to control.
# platelet factor-4 (PF-4) [2] = assay: Thrombus formation by real-time RT-PCR quantification of PF-4 in the FeCl3 induced venous thrombosis model; assay type: in vivo, mouse; conditions: for PF-4 (percentage of PF-4 as compared to the PBS-treated control groups): BALB/c mice, vena cava, FeCl3
# Protocol: Three groups of BALB/c mice were injected with 25 mg/kg, 37.5 mg/kg, or 50 mg/kg of ISIS 403102, administered subcutaneously twice a week for 3 weeks. Two control groups of BALB/c mice were treated with PBS, administered subcutaneously twice a week for 3 weeks. Thrombus formation was induced with FeCl3 in half of the mice while the rest of the mice were assayed for tail bleeding. Two days after receiving the last dose of ISIS 403102 or PBS, mice were anesthetized with 150 mg/kg ketamine mixed with 10 mg/kg xylazine administered by intraperitoneal injection. Thrombus formation was induced with FeCl3 in all groups of the VT mice except the first control group.
# In mice undergoing FeCl3 treatment, thrombus formation was induced by applying a piece of filter paper (2×4 mm) pre-saturated with 10% FeCl3 solution directly on the vena cava. After 3 minutes of exposure, the filter paper was removed. Thirty minutes after the filter paper application, a fixed length of the vein containing the thrombus was dissected out for platelet analysis. Liver was collected for RNA analysis.
# (§2) Real-time RT-PCR quantification of platelet factor-4 (PF-4) was used to quantify platelets in the vena cava as a measure of thrombus formation. Results are presented as a percentage of PF-4 in ISIS 403102, as compared to the two PBS-treated control groups. […] Therefore, antisense oligonucleotides are useful for inhibiting thrombus and clot formation.
# ISIS 403102 and warfarin (Coumadin®) were evaluated in BALB/c mice. Four groups of BALB/c mice were treated with 5 mg/kg, 10 mg/kg, 20 mg/kg, or 40 mg/kg of ISIS 403102, administered subcutaneously twice a week for 3 weeks. Two days after receiving the last dose of ISIS 403102, mice were anesthetized with 150 mg/kg ketamine mixed with 10 mg/kg xylazine administered by intraperitoneal injection. Six additional groups of BALB/c mice was treated with 0.5 mg/kg, 1 mg/kg, 2 mg·kg, 3 mg/kg, 4 mg/kg, or 5 mg/kg of warfarin, administered intraperioneally daily for 6 days. Four hours after the last dose of warfarin, mice were sacrificed. A control group of BALB/c mice were treated with PBS, administered subcutaneously twice a week for 3 weeks. Two days after the last dose of PBS, mice were anesthetized with 150 mg/kg ketamine mixed with 10 mg/kg xylazine administered by intraperitoneal injection. Thrombus formation was induced with FeCl3 in groups of mice except the first control group.
# as §2, with “403102 or warfarin treated mice,” for “403102,”, “Therefore, ISIS” for “Therefore,”
# human Factor 7 mRNA = assay: Antisense inhibition of human Factor 7 with short (14-mer) oligonucleotides in HepB3 cells, electroporation 1,000 nM; assay type: cell-based; conditions: electroporation, 1,000 nM antisense oligonucleotide, approximately 24 hours, Factor 7 mRNA relative to untreated control cells
# In short: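 14-mer 2-10-2 MOE gapmers (full phosphorothioate, 5-methyl-C) electroporated at 1,000 nM into HepB3 cells at 20,000 cells/well. After ~24 h, Factor 7 mRNA by real-time RT-PCR, normalized to RiboGreen total RNA. Reported as % inhibition relative to untreated cells.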
# [3] = 10 mg/kg subcutaneously twice a week for 3 weeks
# [4] = 25 mg/kg subcutaneously twice a week for 3 weeks
# [5] = 50 mg/kg subcutaneously twice a week for 3 weeks
# [6] = 5-50 mg/kg twice a week for 3 weeks
substance,measurement,setting,value
"CCATAGAACAGCTTCACAGG (sugars from the 5' end e5 d10 e5, backbone and methylation of C not given here) [ISIS 403102]",% inhibition of murine Factor 7 mRNA,"murine Factor 7 mRNA; 5 mg/kg subcutaneously twice a week for 3 weeks, relative to PBS control",64%
same,% inhibition of murine Factor 7 mRNA,murine Factor 7 mRNA; [3],84%
same,% inhibition of murine Factor 7 mRNA,murine Factor 7 mRNA; [4],96%
same,% inhibition of murine Factor 7 mRNA,murine Factor 7 mRNA; [5],99%
same,reduction of murine Factor 7 mRNA over the PBS control,murine Factor 7 mRNA; [6],dose-dependent reduction of murine Factor 7
same,PF-4 (percentage of PF-4 as compared to the PBS-treated control groups),platelet factor-4 (PF-4) [1]; 1 mg/kg s.c. twice a week for 3 weeks,120%
same,PF-4 (percentage of PF-4 as compared to the PBS-treated control groups),platelet factor-4 (PF-4) [1]; 3 mg/kg s.c. twice a week for 3 weeks,112%
same,% inhibition of murine Factor 7 protein,murine Factor 7 protein; 5 mg/kg subcutaneously twice a week for 3 weeks,71%
same,% inhibition of murine Factor 7 protein,murine Factor 7 protein; [3],88%
same,% inhibition of murine Factor 7 protein,murine Factor 7 protein; [4],99%
same,% inhibition of murine Factor 7 protein,murine Factor 7 protein; [5],99%
same,reduction of murine Factor 7 protein over the PBS control,murine Factor 7 protein; [6],dose-dependent reduction of murine Factor 7 protein
same,PF-4 in comparison to the PBS control,"platelet factor-4 (PF-4) [2]; Example 14, 25, 37.5, 50 mg/kg twice a week for 3 weeks",reduction of PF-4
same,PF-4 (percentage of PF-4 as compared to the PBS-treated control groups),"platelet factor-4 (PF-4) [2]; Example 14, 25 mg/kg s.c. twice a week for 3 weeks",34%
same,PF-4 (percentage of PF-4 as compared to the PBS-treated control groups),"platelet factor-4 (PF-4) [2]; Example 14, 37.5 mg/kg s.c. twice a week for 3 weeks",24%
same,PF-4 (percentage of PF-4 as compared to the PBS-treated control groups),"platelet factor-4 (PF-4) [2]; Example 14, 50 mg/kg s.c. twice a week for 3 weeks",24%
same,PF-4 (percentage of PF-4 as compared to the PBS-treated control groups),"platelet factor-4 (PF-4) [2]; Example 16, 5 mg/kg s.c. twice a week for 3 weeks",69%
same,PF-4 (percentage of PF-4 as compared to the PBS-treated control groups),"platelet factor-4 (PF-4) [2]; Example 16, 10 mg/kg s.c. twice a week for 3 weeks",22%
same,PF-4 (percentage of PF-4 as compared to the PBS-treated control groups),"platelet factor-4 (PF-4) [2]; Example 16, 20 mg/kg s.c. twice a week for 3 weeks",41%
same,PF-4 (percentage of PF-4 as compared to the PBS-treated control groups),"platelet factor-4 (PF-4) [2]; Example 16, 40 mg/kg s.c. twice a week for 3 weeks",38%
same,PF-4 in comparison to the PBS control,"platelet factor-4 (PF-4) [2]; Example 16, dosages of 5 mg/kg and higher, twice a week for 3 weeks",dose-dependent reduction of PF-4
407939 (antisense eT*eG*e[5mC]*eA*eG*d[5mC]*d[5mC]*d[5mC]*dG*dG*d[5mC]*dA*d[5mC]*d[5mC]*d[5mC]*eA*eG*e[5mC]*eG*eA) [compound 407939],% Inhibition,human Factor 7 mRNA,81%
